Measured values as given in patent US20260167935A1, “METHOD FOR CULTURING TONSIL-DERIVED MESENCHYMAL STEM CELLS USING N-ACETYLCYSTEINE (NAC)” (priority 2023, published 2026).

What was measured:
[1] = system: tonsil-derived human MSCs (hMSC-T, passage 6); assay: Cell viability (WST, absorbance at 450 nm) upon NAC pretreatment followed by PYBR treatment; format: cell-based; conditions: NAC pretreatment 10 mM and 20 mM for 24 hours, then PYBR 5, 10, 20 μg/mL for 24 hours; FIG. 3
Method: In order to evaluate cell viability upon NAC treatment, tonsil-derived human MSCs (hMSC-T, passage 6) were seeded in a culture medium at a density of 1×10^3 cells/well. On the following day, NAC was treated at concentrations of 10 mM and 20 mM for 24 hours. Thereafter, the cells were washed with PBS and the medium was replaced, followed by treatment with PYBR at concentrations of 5, 10, and 20 μg/mL. After 24 hours, the cells were washed three times with PBS and transferred to fresh medium (100 μL) containing 10 μL of WST solution, and incubated at 37° C. for 2 hours in the dark. Absorbance at 450 nm was then measured to evaluate cell viability (FIG. 2). A group not treated with NAC was used as a positive control.

[2] = system: tonsil-derived human MSCs; assay: Cell viability after NAC pretreatment for 24 hours (determination of NAC pretreatment concentration); conditions: NAC 10 mM, FIG. 1
Method: In order to determine the concentration of NAC for pretreatment of tonsil-derived human MSCs, the tonsil-derived human MSCs were pretreated with NAC prepared in Example 1 at concentrations of 2, 4, 6, 8, 10, 15, and 100 mM for 24 hours, and then cell viability was evaluated.

[3] = system: tonsil-derived human MSCs (hMSC-T, passage 6); assay: Antioxidant activity (ROS assay) upon NAC pretreatment followed by PYBR treatment; format: cell-based; conditions: NAC pretreatment 10 mM and 20 mM for 24 hours, then PYBR 5, 10, 20 μg/mL for 24 hours; FIG. 5
Method: In order to evaluate antioxidant activity upon NAC treatment, tonsil-derived human MSCs (hMSC-T, passage 6) were seeded in a culture medium at a density of 1×10^4 cells/well. On the following day, NAC was treated at concentrations of 10 mM and 20 mM for 24 hours. Thereafter, the cells were washed with PBS and the medium was replaced, followed by treatment with PYBR at concentrations of 5, 10, and 20 μg/mL. After 24 hours, the cells were washed three times with PBS and incubated in 100 μL of ROS working solution at 37° C. for 30 minutes in the dark. Absorbance was then measured at 488/525 nm (FIG. 4). A group not treated with NAC was used as a positive control.

Compound: CC(=O)NC(CS)C(=O)O (stereo not drawn) [NAC, 2-acetamido-3-sulfanylpropanoic acid]
- cell viability after PYBR treatment [1]: significantly restored cell viability
- cytotoxicity (cell viability) [2]: no cytotoxicity was observed
- ROS levels after PYBR treatment [3]: significantly reduced ROS levels
